{"source": "patent US20110110985A1", "about": "“FUNCTIONALIZED NANOMATERIALS FOR CHELATION THERAPIES AND SORBENT DIALYSIS OF TOXINS” (priority 2009, published 2011)", "origin": "cited, not measured here", "key": {"[1]": {"details": "given in the first 24 hours"}, "[2]": {"details": "day of chelation vs one and two days prior to treatment"}, "[3]": {"details": "given orally to rats"}}, "data": [{"smiles": "O=C(O)CN(CCN(CC(=O)O)CC(=O)O)CCN(CC(=O)O)CC(=O)O", "note": "[Ca-DTPA, diethylenetriaminepentaacetic acid]", "values": [{"measurement": "effectiveness relative to Zn-DTPA", "setting": "[1]", "value": 10, "unit": "fold"}]}, {"smiles": "O=C(O)CN(CCN(CC(=O)O)CC(=O)O)CC(=O)O", "note": "[EDTA, ethylenediamine-tetraacetate]", "values": [{"measurement": "increase of urinary excretion of Ca", "setting": "[2]", "value": 2, "unit": "fold"}, {"measurement": "increase of urinary excretion of Zn", "setting": "[2]", "value": 18, "unit": "fold"}]}, {"smiles": "O=C(O)[C@@H](S)[C@@H](S)C(=O)O", "note": "[DMSA, meso-2,3-dimercaptosuccinic acid]", "values": [{"measurement": "change of Ca and Zn in carcass, Fe and Cu in liver, kidney, or brain", "setting": "[3]", "value": "did not significantly change"}]}]}
